Legend:
[1] = tested on: tobacco mosaic virus (TMV); experiment: Anti-TMV in vitro effect (half-leaf soaking); assay type: cell-based, tobacco mosaic virus (host Nicotiana tabacum L.cv.Xanthi NN)
[2] = tested on: tobacco mosaic virus (TMV); experiment: Anti-TMV in vivo inactivation; parameters: species or system tobacco mosaic virus (host Nicotiana tabacum L.cv.Xanthi NN)
[3] = tested on: tobacco mosaic virus (TMV); experiment: Anti-TMV in vivo therapeutic effect; parameters: species or system tobacco mosaic virus (host Nicotiana tabacum L.cv.Xanthi NN)
[4] = tested on: tobacco mosaic virus (TMV); experiment: Anti-TMV in vivo protective effect; parameters: species or system tobacco mosaic virus (host Nicotiana tabacum L.cv.Xanthi NN)
cucumber fusarium wilt = experiment: Fungicidal (bactericidal) activity in vitro, PDA colony diameter; assay type: cell-based; settings: 50 mg/kg
Cercospora arachidicola = experiment: as above; assay type: cell-based; settings: 50 mg/kg
Macrophoma kawatsukai = experiment: as above; assay type: cell-based; settings: 50 mg/kg
Alternaria solani = experiment: as above; assay type: cell-based; settings: 50 mg/kg
Fusarium graminearumt = experiment: microbe, parasite or virus in culture; assay type: cell-based; settings: 50 mg/kg
potato late blight = experiment: microbe, parasite or virus in culture; assay type: cell-based
Sclerotinia scleotiorum = experiment: Fungicidal (bactericidal) activity in vitro, PDA colony diameter; assay type: cell-based; settings: 50 mg/kg
Botrytis cinerea = experiment: as above; assay type: cell-based; settings: 50 mg/kg
Rhizoctonia solani = experiment: as above; assay type: cell-based; settings: 50 mg/kg
Phytophthora capsici = experiment: as above; assay type: cell-based; settings: 50 mg/kg
Fusarium fujikuroi = experiment: as above; assay type: cell-based; settings: 50 mg/kg
Rhizoctonia cereali = experiment: as above; assay type: cell-based; settings: 50 mg/kg
Bipolaria maydis = experiment: organism not typed; assay type: cell-based; settings: 50 mg/kg
[5] = tested on: Colletotrichum orbiculare; experiment: Fungicidal (bactericidal) activity in vitro, PDA colony diameter; assay type: cell-based; settings: 50 mg/kg
armyworms = assay type: in vivo; settings: concentration 600 mg/kg
cotton bollworms = experiment: whole plant or invertebrate; settings: concentration 600 mg/kg
Method: Experimental method of cotton bollworms: feed and drug mixing method: measure 3 mL of prepared solution and add it to about 27 g of newly prepared feed, thereby obtaining needed concentration through dilution by 10 times.

mosquito larvae = experiment: whole plant or invertebrate; settings: concentration 10 mg/kg, 24 h
How it was run: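 Early fourth-instar Culex pipiens pallens larvae from an indoor colony, 10 per beaker, exposed to test compound at 5 ppm in water, diluted from a 1000 ppm acetone mother solution. Blank: water containing 0.5 mL test solvent.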

[6] = tested on: tobacco mosaic virus (TMV); experiment: Anti-TMV activity, overall statements on Table 1; assay type: in vivo, tobacco mosaic virus (host Nicotiana tabacum L.cv.Xanthi NN); settings: 100 μg/mL versus ningnanmycin at 100 μg/mL
corn borers = settings: concentration 600 mg/kg

Row | Compound | Relative inhibition rate (%) In vitro activity ([1]; treatment dose 100 μg/mL) [%] | Relative inhibition rate (%) In vitro activity ([1]; treatment dose 500 μg/mL) [%] | Relative inhibition rate (%) In vivo inactivation ([2]; treatment dose 100 μg/mL) [%] | Relative inhibition rate (%) In vivo inactivation ([2]; treatment dose 500 μg/mL) [%] | Relative inhibition rate (%) In vivo therapy ([3]; treatment dose 100 μg/mL) [%] | Relative inhibition rate (%) In vivo therapy ([3]; treatment dose 500 μg/mL) [%] | Relative inhibition rate (%) In vivo protection ([4]; treatment dose 100 μg/mL) [%] | Relative inhibition rate (%) In vivo protection ([4]; treatment dose 500 μg/mL) [%] | Bactericidal activity (%) Cucumber fusarium wilt (cucumber fusarium wilt) [%] | Bactericidal activity (%) Cercospora arachidicola (Cercospora arachidicola) [%] | Bactericidal activity (%) Macrophoma kawatsukai (Macrophoma kawatsukai) [%] | Bactericidal activity (%) Alternaria solani (Alternaria solani) [%] | Bactericidal activity (%) Fusarium graminearumt (Fusarium graminearumt) [%] | Bactericidal activity (%) potato late blight (potato late blight) [%] | Bactericidal activity (%) Sclerotinia scleotiorum (Sclerotinia scleotiorum) [%] | Bactericidal activity (%) Botrytis cinerea (Botrytis cinerea) [%] | Bactericidal activity (%) Rhizoctonia solani (Rhizoctonia solani) [%] | Bactericidal activity (%) Phytophthora capsici (Phytophthora capsici) [%] | Bactericidal activity (%) Fusarium fujikuroi (Fusarium fujikuroi) [%] | Bactericidal activity (%) Rhizoctonia cereali (Rhizoctonia cereali) [%] | further results
1 | C[C@@H]1N[C@H](C(=O)NN=Cc2ccc3c(c2)OCO3)Cc2c1[nH]c1ccccc21 [Ic-12] | 29.1 | 72.6 | 33.6 | 74.5 | 30.2 | 69 | 35.8 | 68.1 | 31.8 | 63.6 | 63.6 | 52.4 | 53.8 | 39.1 | 44.2 | 88.9 | 50.0 | 81.8 | 58.8 | 86.5 | Bactericidal activity (%) Bipolaria maydis (Bipolaria maydis): 56.0%; Bactericidal activity (%) Colletotrichum orbiculare [5]: 48.0%; Armyworm Mortality (%) (armyworms): 15%; Cotton bollworm Mortality (%) (cotton bollworms): 30%; Mosquito larvae Mortality (%) (mosquito larvae): 15%; anti-TMV activity compared with ningnanmycin [6]: equivalent to the activity of commercial variety ningnanmycin; Corn borer Mortality (%) (corn borers): 15%
2 | C[C@@H]1N[C@H](C(=O)NNC(=O)C(C)(C)C)Cc2c1[nH]c1ccccc21 [Id-6, (1S, 3S)—N′-tert-valeryl-1-methyl-2,3,4,9-tetrahydropyridino [3,4-b] indol-3-formylhydrazine] | 8.9 | 45.7 | 12.8 | 44 | 14.2 | 42.1 | 16.9 | 47.5 | 4.5 | 9.1 | 42.4 | 14.3 | 30.8 | 26.1 | 17.3 | 50.0 | 5.6 | 12.1 | 29.4 | 10.8 | Bactericidal activity (%) Bipolaria maydis (Bipolaria maydis): 20.0%; Bactericidal activity (%) Colletotrichum orbiculare [5]: 24.0%; Armyworm Mortality (%) (armyworms): 35%; Cotton bollworm Mortality (%) (cotton bollworms): 25%; Mosquito larvae Mortality (%) (mosquito larvae): 65%; anti-TMV activity compared with ningnanmycin [6]: equivalent to the activity of commercial variety ningnanmycin; Corn borer Mortality (%) (corn borers): 50%
